For 24 compounds, inhibition and IC50 results are on record in patent US11613531B2, “Inhibitors of RHO associated coiled-coil containing protein kinase” (Kadmon Corporation, LLC, priority 2017, dated 2023).

Assay [1] has as its target Recombinant ROCK2 (amino acids 1-552) (Homo sapiens (Human), UniProt O75116). Kind of assay: Z′-Lyte kinase assay, ROCK2. The format is biochemical. Particulars: for inhibition at 1 µM: 1 μM compound, read-out: ROCK2 % inh. @ [conc]; for IC50: 9 points 2-fold serial dilution. As to the method:
Determination of Compound's ROCK Inhibitory Activity In Vitro (Z'Lyte Assay).
Recombinant ROCK1 (amino acids 1-535) and ROCK2 (amino acids 1-552) proteins were purchased from ThermoFisher Scientific. Compound's activities were measured by Z′-lyte kinase kit (ThermoFisher Scientific) and IC50 was calculated
In vitro activities for the compounds were measured with Z′-lyte kinase kit (ThermoFisher Scientific). The percent inhibition rate was calculated by normalizing the kinase activity value obtained with 1 μM compound treatment against DMSO control value and then applied to the formula, [1-(compound/DMSO)]×100%. IC50s were calculated using the nonlinear regression curve fit function of the GraphPad Prism software with kinase activities data measured with 9 points 2-fold serial dilution of compounds treatment. In cell pMLC IC50s were calculated with data obtained from A7R5 cell experiments. A7R5 cells were treated with 9 points 2-fold serial dilution of compounds and ppMlc (T18/S19) levels were determined to calculate cellular IC50 values of the compounds using the nonlinear regression curve fit function of the GraphPad Prism software. NIH3T3 cells stably expressing ACTA2-promoter-driven-luciferase were applied to measure ROCK compounds functional IC50s in cells. Cells were plated in 96 well plates to confluence and treated with 9 points serial dilution of compounds in combination with TGFβ1 for 24 hr. Luciferase activities were measured and compound's IC50s were calculated using the nonlinear regression curve fit function of the GraphPad Prism software.

For assay [2], the system named is ppMlc (T18/S19) levels in A7R5 cells. In words: A7R5 in-cell ELISA (pMLC). The assay is classed as cell-based, Rat. Particulars: Rattus norvegicus, A7R5, A7R5 cells; for inhibition at 10 µM: 10 μM compound; for inhibition at 10 µM / inhibition at 1 µM: read-out: pMLC % inh A7R5 @ [conc]; for IC50: ppMlc (T18/S19); for inhibition at 1 µM: 1 μM compound. The method, boiled down:
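Cellular IC50 came from a nonlinear regression fit of ppMlc (T18/S19) signal, read by colorimetric in-cell ELISA on fixed cells. Rat A7R5 aortic smooth muscle cells had been exposed for 90 min to compounds in 9-point 2-fold serial dilution, 24 h after seeding.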

Chain of Recombinant ROCK2 (amino acids 1-552) (O75116 1-552): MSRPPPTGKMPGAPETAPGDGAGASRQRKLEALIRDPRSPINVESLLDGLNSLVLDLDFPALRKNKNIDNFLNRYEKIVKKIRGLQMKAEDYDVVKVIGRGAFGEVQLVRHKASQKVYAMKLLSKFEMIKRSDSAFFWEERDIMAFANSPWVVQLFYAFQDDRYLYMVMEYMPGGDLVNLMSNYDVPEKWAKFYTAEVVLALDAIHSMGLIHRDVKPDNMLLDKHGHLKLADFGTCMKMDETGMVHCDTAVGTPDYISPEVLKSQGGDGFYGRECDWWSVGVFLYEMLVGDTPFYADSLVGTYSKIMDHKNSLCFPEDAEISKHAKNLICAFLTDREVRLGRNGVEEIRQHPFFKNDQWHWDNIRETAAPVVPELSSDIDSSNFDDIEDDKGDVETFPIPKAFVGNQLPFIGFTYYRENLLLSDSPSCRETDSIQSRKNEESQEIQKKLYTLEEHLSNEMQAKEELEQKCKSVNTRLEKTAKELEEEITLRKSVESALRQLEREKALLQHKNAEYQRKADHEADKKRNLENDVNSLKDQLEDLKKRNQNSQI

For `CCC1CCN(c2ncc(OC)c(Nc3ccc4[nH]ncc4c3)n2)CCN1` (stereo not shown) [Example 54, N-(2-(5-ethyl-1,4-diazepan-1-yl)-5-methoxypyrimidin-4-yl)-1H-indazol-5-amine], the inhibition at 1 µM in assay [1] stood at 58.5%. Besides, in assay [2], the inhibition at 10 µM came to 50.1% and the IC50 worked out at 1700 nM.

With `COc1cnc(N2CCCNC(C)C2)nc1Nc1ccc2[nH]ncc2c1` (stereo not shown) [Example 55, N-(5-methoxy-2-(3-methyl-1,4-diazepan-1-yl)pyrimidin-4-yl)-1H-indazol-5-amine], the inhibition at 1 µM in assay [1] is 83.3%. In addition, in assay [2], the inhibition at 10 µM turned out to be 52.2% and the IC50 was 998 nM.

As for `COc1cnc(N2CCNCC(C)C2)nc1Nc1ccc2[nH]ncc2c1` (stereo not shown) [Example 56, N-(5-methoxy-2-(6-methyl-1,4-diazepan-1-yl)pyrimidin-4-yl)-1H-indazol-5-amine], the inhibition at 1 µM came out at 87.1% in assay [1] and 29% in assay [2].

Regarding `c1cc(Nc2ccc3[nH]ncc3c2)nc(N2CCNC3(CC3)C2)n1` [Example 66, N-(2-(4,7-diazaspiro[2.5]octan-7-yl)pyrimidin-4-yl)-1H-indazol-5-amine], in assay [1], the inhibition at 1 µM is 86.3% and the IC50 was determined as 380 nM. For the same compound, in assay [2], the inhibition at 1 µM amounted to 17.5%.

Take `c1cc(Nc2ccc3[nH]ncc3c2)nc(N2CC3CCC2CN3)n1` (stereo not shown) [Example 67, N-(2-(2,5-diazabicyclo[2.2.2]octan-2-yl)pyrimidin-4-yl)-1H-indazol-5-amine]: in assay [1], the inhibition at 1 µM was found to be 99.2% and the IC50 came out at 45 nM. In assay [2], the inhibition at 1 µM turned out to be 31.4% and the IC50 is 1360 nM.

As to `CC1CN(c2nccc(Nc3ccc4[nH]ncc4c3)n2)C(C)CN1` (stereo not shown) [Example 68, N-(2-(2,5-dimethylpiperazin-1-yl)pyrimidin-4-yl)-1H-indazol-5-amine], the IC50 in assay [1] came to 294 nM. Besides, in assay [2], the inhibition at 1 µM amounted to 35.4% and the IC50 stood at 1010 nM.

Turning to `c1cc(Nc2ccc3[nH]ncc3c2)nc(N2CC3CNC(C3)C2)n1` (stereo not shown) [Example 78, N-(2-(3,6-diazabicyclo[3.2.1]octan-3-yl)pyrimidin-4-yl)-1H-indazol-5-amine], the inhibition at 1 µM in assay [1] came out at 99.1%; in assay [2] it was 20.3%.

For the compound `c1cc(Nc2ccc3[nH]ncc3c2)nc(N2CCN3CCNCC3C2)n1` (stereo not shown) [Example 84, N-(2-(octahydro-2H-pyrazino[1,2-a]pyrazin-2-yl)pyrimidin-4-yl)-1H-indazol-5-amine], the inhibition at 1 µM in assay [1] is 22.2%; in assay [2], 0.7%.

On to `c1cc(Nc2ccc3[nH]ncc3c2)nc(N2CCC3CNCC3CC2)n1` (stereo not shown) [Example 85, N-(2-(octahydropyrrolo[3,4-d]azepin-6(1H)-yl)pyrimidin-4-yl)-1H-indazol-5-amine], for which the inhibition at 1 µM came out at 98% in assay [1] and 17.3% in assay [2].

`c1ccc2c(c1)N(c1nccc(Nc3ccc4[nH]ncc4c3)n1)CC21CCNCC1` [Example 87, N-(2-(spiro[indoline-3,4′-piperidin]-1-yl)pyrimidin-4-yl)-1H-indazol-5-amine]: the inhibition at 1 µM in assay [1] is 7.6%; in assay [2], 5.8%.

As to `c1ccc2c(c1)C(C1CCNCC1)CN2c1nccc(Nc2ccc3[nH]ncc3c2)n1` (stereo not shown) [Example 88, N-(2-(3-(piperidin-4-yl)indolin-1-yl)pyrimidin-4-yl)-1H-indazol-5-amine], the inhibition at 1 µM in assay [1] was 13.8%; in assay [2], 5.6%.

For `c1ccc2c(c1)C(C1CCCNC1)CN2c1nccc(Nc2ccc3[nH]ncc3c2)n1` (stereo not shown) [Example 89, N-(2-(3-(piperidin-3-yl)indolin-1-yl)pyrimidin-4-yl)-1H-indazol-5-amine], the inhibition at 1 µM turned out to be 12.7% in assay [1] and 20.1% in assay [2].

Consider `CC1CN(c2ncc(Cl)c(Nc3ccc4[nH]ncc4c3)n2)CCCN1` (stereo not shown) [Example 90, N-(5-chloro-2-(3-methyl-1,4-diazepan-1-yl)pyrimidin-4-yl)-1H-indazol-5-amine], for which the inhibition at 1 µM in assay [1] was 73.8%. Besides, in assay [2], the inhibition at 10 µM worked out at 54.2% and the half-maximal inhibitory concentration (IC50) is 2200 nM.

Consider `Cc1cnc(N2CCNC(C)C2)nc1Nc1ccc2[nH]ncc2c1` (stereo not shown) [Example 91, N-(5-methyl-2-(3-methylpiperazin-1-yl)pyrimidin-4-yl)-1H-indazol-5-amine], for which the inhibition at 1 µM in assay [1] came to 47.9%. Besides, the inhibition at 10 µM in assay [2] turned out to be 46.7%.

On to `Cc1cnc(N2CCNCC2)nc1Nc1ccc2[nH]ncc2c1` [Example 95, N-(5-methyl-2-(piperazin-1-yl)pyrimidin-4-yl)-1H-indazol-5-amine], for which the inhibition at 1 µM in assay [1] worked out at 61%. Also, in assay [2], the inhibition at 10 µM worked out at 46.7%.

Turning to `CCC1CCN(c2ncc(C)c(Nc3ccc4[nH]ncc4c3)n2)CCN1` (stereo not shown) [Example 96, N-(2-(5-ethyl-1,4-diazepan-1-yl)-5-methylpyrimidin-4-yl)-1H-indazol-5-amine], the inhibition at 1 µM in assay [1] was determined as 27.2%. The inhibition at 10 µM in assay [2] turned out to be 14.3%.

For `Cc1cnc(N2CCNCC2C)nc1Nc1ccc2[nH]ncc2c1` (stereo not shown) [Example 97, N-(5-methyl-2-(2-methylpiperazin-1-yl)pyrimidin-4-yl)-1H-indazol-5-amine], the inhibition at 1 µM in assay [1] came to 54%. For the same compound, in assay [2], the inhibition at 10 µM worked out at 52.5% and the IC50 amounted to 2340 nM.

Take `Cc1cnc(N2CC(C)NC(C)C2)nc1Nc1ccc2[nH]ncc2c1` (stereo not shown) [Example 98, N-(2-(3,5-dimethylpiperazin-1-yl)-5-methylpyrimidin-4-yl)-1H-indazol-5-amine]: in assay [1], the inhibition at 1 µM worked out at 0%. Also, the inhibition at 10 µM in assay [2] was 17.4%.

Regarding `Cc1cnc(N2CCNC(C)CC2)nc1Nc1ccc2[nH]ncc2c1` (stereo not shown) [Example 100, N-(5-methyl-2-(5-methyl-1,4-diazepan-1-yl)pyrimidin-4-yl)-1H-indazol-5-amine], in assay [1], the inhibition at 1 µM amounted to 47.5%. The inhibition at 10 µM in assay [2] turned out to be 46.4%.

Take `Cc1cnc(N2CCCNC(C)C2)nc1Nc1ccc2[nH]ncc2c1` (stereo not shown) [Example 102, N-(5-methyl-2-(3-methyl-1,4-diazepan-1-yl)pyrimidin-4-yl)-1H-indazol-5-amine]: in assay [1], the inhibition at 1 µM was found to be 48.5% and the IC50 worked out at 1100 nM. Besides, the inhibition at 10 µM in assay [2] turned out to be 43.5%.

Consider `Cc1cnc(N2CCCNCC2C)nc1Nc1ccc2[nH]ncc2c1` (stereo not shown) [Example 104, N-(5-methyl-2-(2-methyl-1,4-diazepan-1-yl)pyrimidin-4-yl)-1H-indazol-5-amine], for which the inhibition at 1 µM in assay [1] came out at 82.9%; in assay [2], 31.6%. In addition, in assay [2], the IC50 is 997 nM.

Consider `CCC1CNCCCN1c1ncc(C)c(Nc2ccc3[nH]ncc3c2)n1` (stereo not shown) [Example 105, N-(2-(2-ethyl-1,4-diazepan-1-yl)-5-methylpyrimidin-4-yl)-1H-indazol-5-amine], for which the inhibition at 1 µM turned out to be 53.9% in assay [1] and 15.1% in assay [2].

For the compound `CCC1CN(c2ncc(C)c(Nc3ccc4[nH]ncc4c3)n2)CCCN1` (stereo not shown) [Example 106, N-(2-(3-ethyl-1,4-diazepan-1-yl)-5-methylpyrimidin-4-yl)-1H-indazol-5-amine], the inhibition at 1 µM in assay [1] worked out at 34.1%; in assay [2], 12.8%.

In the case of `Cc1cnc(N2C3CCC2CNC3)nc1Nc1ccc2[nH]ncc2c1` [Example 107, N-(2-(3,8-diazabicyclo[3.2.1]octan-8-yl)-5-methylpyrimidin-4-yl)-1H-indazol-5-amine], the inhibition at 1 µM in assay [1] worked out at 98.3%; in assay [2], 26%.
